Tests used:
[1] = tested on: lymph node cells from GAD65-immunized HLA-DR4 transgenic mice; test: Proliferation and cytokines of lymph node cells from HLA-DR4 transgenic mice immunized with p271-285 GAD65 peptide; format: cell-based, mouse
Method: (§1) FIG. 9A-C. Potency of human DEF molecules in activating murine specific T cells. (A) Lymph node cells (3×10^5) from HLA-DR4 transgenic mice immunized with p271-285 GAD65 peptide were cultured for five dats in the presence of spleen cells (2×10^5) from naive HLA-DR4 mice and 5, 10 or 15 μg/ml of GAD65 peptide or 0.05, 0.5 or 1 μg/ml of DEF-GAD65. (B) Using the same protocol as for (A), cells from mice immunized withp73-90 proinsulin peptide wee stimulated with the same doses of proinsulin peptide or DEF-Pi. […] The proliferative responses are expressed as Δcpm=specific cpm−background cpm.
(§2) HLA-DR*0401 +/+, Abb −/− mice ([…], Taconic, Germantown, N.Y.) expressthe α1β1 domains of HLA-DR*0401 linked to the α2β2 domains of I-E^d, and at the same time are deficient for endogenous MHC class II (1-A^b, I-E^b) molecules (Abb −/−).
(§3) Groups of five mice were immunized in the footpads with either 100 micrograms of p271-285 GAD65 peptide or p73-90 proinsulin peptide in Complete Freund's Adjuvant (“CFA”). Lymph nodes were harvested ten days later and cells from GAD65-immunized mice were stimulated in vitro with various doses of p271-285 synthetic peptide, DEF-GAD65 or empty DEF molecules. […] The amount of peptide carried by the human DEF molecules was normalized on a molar basis, and the immunopotency determined as described in Casares et al., 1999, 3. […]

[2] = tested on: lymph node cells from proinsulin-immunized HLA-DR4 transgenic mice; test: Proliferation and cytokines of lymph node cells from HLA-DR4 transgenic mice immunized with p73-90 proinsulin peptide; format: cell-based, mouse
Method: as §1, §2, §3

Substance | EC50 ([1]; cells from GAD65-immunized mice, read-out: Half-maximal proliferation of stimulated cells) | cytokine production in culture supernatants ([1]; day 5, ELISA) | EC50 ([2]; cells from proinsulin-immunized mice, read-out: Half-maximal proliferation of stimulated cells) | cytokine production in culture supernatants ([2]; day 5, ELISA)
GAD65 peptide PRLIAFTSEHSHFSL (SEQ ID NO:10) (listed as Homo sapiens) [p271-285] | 1000 nM | also secreted IL-10 | – | –
proinsulin peptide GAGSLQPLALEGSLQKRG (SEQ ID NO: 43) (listed as Homo sapiens) [p73-90] | – | – | 2500 nM | secreted IL-2 but not IL-10

— patent US20040234531A1, “Chimeric human leukocyte antigen and epitope-bearing molecules having immunosuppressant activity” (priority 2001, published 2004)
